Measured values from patent publication US10131651B2, “[7,6]-fused bicyclic antidiabetic compounds” (Merck Sharp & Dohme Corp., priority 2014, dated 2018).

What follows are compounds tested against human GPR40 (Homo sapiens (Human), UniProt O14842) (assay: Inositol Phosphate Turnover (IP1) Assay). Settings: HEK cells stably expressing human GPR40.
Type: cell-based
Method: Human and mouse GPR40 stable cell-lines were generated in CHO cells stably expressing NFAT BLA (Beta-lactamase). A human GPR40 stable cell-line was generated in HEK cells stably expressing the acquorin expressing reporter. The expression plasmids were transfected using lipofectamine (Life Technologies) following manufacturer's instructions. Stable cell-lines were generated following drug selection.
The assay is performed in 384-well format. HEK cells stably expressing human GPR40 are plated at 15,000 cells per well in growth medium (DMEM/10% fetal calf serum). Cell plates are then incubated 16 hours at 37 degrees in a 5% CO2 incubator.
Measurement of Inositol Phosphate Turnover (IP1) is performed using the CisBio IP-One kit (Part number 62IPAPEB). After the 16 hour incubation, the cells are washed with HEPES buffer and 10 ul of stimulation buffer (prepared as described in the kit) is added to each well. In a separate plate, compounds are diluted in DMSO (400-fold over the final concentration in the assay well) and 25 nl is acoustically transferred to the appropriate well in the assay cell plate. The plates are then incubated for 60 minutes at 37 degrees. 10 ul of detection buffer (also prepared as described in the IP-One kit) is added to each well and the plates are incubated for 60 minutes in the dark. The plates are then read in a Perkin Elmer EnVision or equivalent reader able to measure FRET. Fluorescent ratio of emission at 665 and 620 nm is then converted to IP1 concentration by back calculating from an IP1 standard curve prepared at the time of the assay.

Sequence of human GPR40 (O14842 whole entry): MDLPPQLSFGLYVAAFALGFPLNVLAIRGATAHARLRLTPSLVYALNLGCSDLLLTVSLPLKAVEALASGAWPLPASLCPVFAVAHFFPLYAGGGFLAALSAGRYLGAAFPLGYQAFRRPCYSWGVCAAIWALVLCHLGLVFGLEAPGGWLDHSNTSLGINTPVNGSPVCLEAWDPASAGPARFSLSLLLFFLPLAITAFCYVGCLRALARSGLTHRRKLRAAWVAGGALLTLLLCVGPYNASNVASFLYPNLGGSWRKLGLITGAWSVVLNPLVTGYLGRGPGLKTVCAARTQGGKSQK

Structure (SMILES)	EC50
COc1cc(-c2cnc(C3CCCc4ccc([C@H](C5CC5)[C@H](C)C(=O)O)cc4O3)cn2)c(F)cn1 (single isomer, unassigned) [Example 13]	684 nM
COc1ccc(F)c(-c2ccc(C3CCCc4ccc([C@H](C5CCC5)[C@H](C)C(=O)O)cc4O3)cc2)c1 (single isomer, unassigned) [Example 11, Sodium (2S,3R)-3-cyclobutyl-3-((R or S)-2-(2′-fluoro-5′-methoxy-[1,1′-biphenyl]-4-yl)-2,3,4,5-tetrahydrobenzo[b]oxepin-8-yl)-2-methylpropanoate]	6 nM
COc1ccc(F)c(-c2ccc(C3CCCc4ccc([C@H](C5CCC5)[C@H](C)C(=O)O)cc4O3)cc2)c1 (single isomer, unassigned) [Example 10, Sodium (2S,3R)-3-cyclobutyl-3-((R or S)-2-(2′-fluoro-5′-methoxy-[1,1′-biphenyl]-4-yl)-2,3,4,5-tetrahydrobenzo[b]oxepin-8-yl)-2-methylpropanoate]	4.6 nM
COc1cc(-c2ccc(C3CCCc4ccc([C@H](C5CC5)[C@H](C)C(=O)O)cc4O3)nc2)c(F)cn1 (single isomer, unassigned) [Example 8, (2S,3R)-3-cyclopropyl-3-((R or S)-2-(5′-fluoro-2′-methoxy-[3,4′-bipyridin]-6-yl)-2,3,4,5-tetrahydrobenzo[b]oxepin-8-yl)-2-methylpropanoic acid]	29 nM
COc1cc(-c2ccc(C3CCCc4ccc([C@H](C5CC5)[C@H](C)C(=O)O)cc4O3)nc2)c(F)cn1 (mixture of isomers) [Example 7, (2S,3R)-3-cyclopropyl-3-((RS)-2-(5′-fluoro-2′-methoxy-[3,4′-bipyridin]-6-yl)-2,3,4,5-tetrahydrobenzo[b]oxepin-8-yl)-2-methylpropanoic acid]	3 nM
COc1cc(-c2cnc(C3CCCc4ccc([C@H](C5CC5)[C@H](C)C(=O)O)cc4O3)cn2)c(F)cn1 (single isomer, unassigned) [Example 12]	116 nM
C[C@H](C(=O)O)[C@H](c1ccc2c(c1)OC(C1CN(Cc3cc(C(F)(F)F)ccc3C(F)(F)F)C1)CCC2)C1CC1 (single isomer, unassigned) [Example 3, (2S, 3R)-3-((R or S)-2-(1-(2,5-bis (trifluoromethyl)benzyl)azetidin-3-yl)-2,3,4,5-tetrahydrobenzo[b]oxepin-8-yl)-3-cyclopropyl-2-methylpropanoic acid]	13 nM
C[C@H](C(=O)O)[C@H](c1ccc2c(c1)OC(C1CN(Cc3cc(C(F)(F)F)ccc3C(F)(F)F)C1)CCC2)C1CC1 (single isomer, unassigned) [Example 4, (2S,3R)-3-((R or S)-2-(1-(2,5-bis(trifluoromethyl)-benzyl)azetidin-3-yl)-2,3,4,5-tetrahydrobenzo[b]-oxepin-8-yl)-3-cyclopropyl-2-methylpropanoic acid]	27 nM

Continued, values first:

EC50	Structure (SMILES)
3.6 nM	COc1cc(-c2ccc(C3CCCc4ccc([C@H](C5CC5)[C@H](C)C(=O)O)cc4O3)c(F)c2)ccn1 (single isomer, unassigned) [Example 1, (2S,3R)-3-cyclopropyl-3-((R or S)-2-(2-fluoro-4-(2-methoxypyridin-4-yl)phenyl)-2,3,4,5-tetrahydrobenzo[b]oxepin-8-yl)-2-methylpropanoic acid]
3.1 nM	COc1cc(-c2ccc(C3CCCc4ccc([C@H](C5CC5)[C@H](C)C(=O)O)cc4O3)cc2)c(F)cn1 (mixture of isomers) [Example 5, (2S,3R)-3-cyclopropyl-3-((RS)-2-(4-(5-fluoro-2-methoxypyridin-4-yl)phenyl)-2,3,4,5-tetrahydrobenzo[b]oxepin-8-yl)-2-methylpropanoic acid]
14 nM	COc1cc(-c2ccc(C3CCCc4ccc([C@H](C5CC5)[C@H](C)C(=O)O)cc4O3)c(F)c2)ccn1 (single isomer, unassigned) [Example 2, (2S,3R)-3-cyclopropyl-3-((R or S)-2-(2-fluoro-4-(2-methoxypyridin-4-yl)phenyl)-2,3,4,5-tetrahydrobenzo[b]oxepin-8-yl)-2-methylpropanoic acid]
5.2 nM	COc1cc(-c2ccc(C3CCCc4ccc([C@H](C5CC5)[C@H](C)C(=O)O)cc4O3)cc2)c(F)cn1 (single isomer, unassigned) [Example 6, (2S,3R)-3-cyclopropyl-3-((R or S)-2-(4-(5-fluoro-2-methoxypyridin-4-yl)phenyl)-2,3,4,5-tetrahydrobenzo[b]oxepin-8-yl)-2-methylpropanoic acid]
